Assay results from the supplement of paper PMC8671470.

system: myeloid leukemia patient primary cells Pat.4; assay: cell viability (% survival relative to DMSO control); higher = less cytotoxic; details: 100 nM; 72 h
Outline: (§1)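 Thawed mononuclear cells from AML or CML patients were purified on Ficoll and cultured for 72 h in RPMI 1640 with 10% FBS, at 10,000 cells/well, on 384-well plates carrying 70 pre-printed compounds at 1–10,000 nM in five tenfold steps, in duplicate. Viability came from CellTiter-Glo, normalised against DMSO and against 10 μM proteasome inhibitor. Any area under the curve given was derived from log-logistic curve fits in the drc and PharmacoGx R packages, and these fits had four parameters.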

| SMILES | cell viability [%] |
| --- | --- |
| CCC(CC#N)OC(=O)N[C@@H](C)c1cccc(NC(=O)Nc2ccc(-c3cnco3)c(OC)c2)c1 (stereo in doubt) [AVN-944] | 92.9 |
| Oc1ncc(F)c(O)n1 [5-fluorouracil] | 92.1 |
| CN(C)CCNC(=O)c1cccn2c(=O)c3cc4ccccc4cc3nc12 [Bmh-21] | 93.9 |

same assay, conditions: 1000 nM; 72 h

| SMILES | cell viability [%] |
| --- | --- |
| O=C(c1c2ccccc2cc2ccccc12)N1CCC(N2CCC[C@@H](C(=O)N3CCOCC3)C2)CC1 | 65.1 |
| c1ccc2c(c1)SCc1c-2[nH]c2ccccc12 | 67.8 |
| CCC(CC#N)OC(=O)N[C@@H](C)c1cccc(NC(=O)Nc2ccc(-c3cnco3)c(OC)c2)c1 (stereo in doubt) [AVN-944] | 63 |
| Oc1ncc(F)c(O)n1 [5-fluorouracil] | 88.9 |
| CN(C)CCNC(=O)c1cccn2c(=O)c3cc4ccccc4cc3nc12 [Bmh-21] | 3.78 |

same assay, conditions: 10000 nM; 72 h

| SMILES | cell viability [%] |
| --- | --- |
| O=C(c1c2ccccc2cc2ccccc12)N1CCC(N2CCC[C@@H](C(=O)N3CCOCC3)C2)CC1 | 60.7 |
| c1ccc2c(c1)SCc1c-2[nH]c2ccccc12 | < 0 |
| CCC(CC#N)OC(=O)N[C@@H](C)c1cccc(NC(=O)Nc2ccc(-c3cnco3)c(OC)c2)c1 (stereo in doubt) [AVN-944] | 33.4 |
| Oc1ncc(F)c(O)n1 [5-fluorouracil] | 60.6 |
| CN(C)CCNC(=O)c1cccn2c(=O)c3cc4ccccc4cc3nc12 [Bmh-21] | 1.54 |

system: myeloid leukemia patient primary cells Pat.5; assay: as above; details: 1 nM; 72 h
Outline: as §1

| SMILES | cell viability [%] |
| --- | --- |
| O=C(c1c2ccccc2cc2ccccc12)N1CCC(N2CCC[C@@H](C(=O)N3CCOCC3)C2)CC1 | 89.3 |
| c1ccc2c(c1)SCc1c-2[nH]c2ccccc12 | 82.4 |
| CCC(CC#N)OC(=O)N[C@@H](C)c1cccc(NC(=O)Nc2ccc(-c3cnco3)c(OC)c2)c1 (stereo in doubt) [AVN-944] | 56.9 |
| Oc1ncc(F)c(O)n1 [5-fluorouracil] | 88.1 |
| CN(C)CCNC(=O)c1cccn2c(=O)c3cc4ccccc4cc3nc12 [Bmh-21] | 35.6 |

same assay, conditions: 10 nM; 72 h

| SMILES | cell viability [%] |
| --- | --- |
| O=C(c1c2ccccc2cc2ccccc12)N1CCC(N2CCC[C@@H](C(=O)N3CCOCC3)C2)CC1 | 67.2 |
| c1ccc2c(c1)SCc1c-2[nH]c2ccccc12 | 5.49 |
| CCC(CC#N)OC(=O)N[C@@H](C)c1cccc(NC(=O)Nc2ccc(-c3cnco3)c(OC)c2)c1 (stereo in doubt) [AVN-944] | 45.4 |
| Oc1ncc(F)c(O)n1 [5-fluorouracil] | 90.3 |
| CN(C)CCNC(=O)c1cccn2c(=O)c3cc4ccccc4cc3nc12 [Bmh-21] | 94.1 |

same assay, conditions: 100 nM; 72 h

| SMILES | cell viability [%] |
| --- | --- |
| O=C(c1c2ccccc2cc2ccccc12)N1CCC(N2CCC[C@@H](C(=O)N3CCOCC3)C2)CC1 | 94.9 |
| c1ccc2c(c1)SCc1c-2[nH]c2ccccc12 | 44.4 |
| CCC(CC#N)OC(=O)N[C@@H](C)c1cccc(NC(=O)Nc2ccc(-c3cnco3)c(OC)c2)c1 (stereo in doubt) [AVN-944] | 40.4 |
| Oc1ncc(F)c(O)n1 [5-fluorouracil] | 84.7 |
| CN(C)CCNC(=O)c1cccn2c(=O)c3cc4ccccc4cc3nc12 [Bmh-21] | 79.9 |

same assay, conditions: 1000 nM; 72 h

| SMILES | cell viability [%] |
| --- | --- |
| O=C(c1c2ccccc2cc2ccccc12)N1CCC(N2CCC[C@@H](C(=O)N3CCOCC3)C2)CC1 | 0.265 |
| c1ccc2c(c1)SCc1c-2[nH]c2ccccc12 | 7.88 |
| CCC(CC#N)OC(=O)N[C@@H](C)c1cccc(NC(=O)Nc2ccc(-c3cnco3)c(OC)c2)c1 (stereo in doubt) [AVN-944] | 9.12 |
| Oc1ncc(F)c(O)n1 [5-fluorouracil] | 61.3 |
| CN(C)CCNC(=O)c1cccn2c(=O)c3cc4ccccc4cc3nc12 [Bmh-21] | 1.33 |

same assay, conditions: 10000 nM; 72 h

| SMILES | cell viability [%] |
| --- | --- |
| O=C(c1c2ccccc2cc2ccccc12)N1CCC(N2CCC[C@@H](C(=O)N3CCOCC3)C2)CC1 | 69.8 |
| c1ccc2c(c1)SCc1c-2[nH]c2ccccc12 | 2.27 |
| CCC(CC#N)OC(=O)N[C@@H](C)c1cccc(NC(=O)Nc2ccc(-c3cnco3)c(OC)c2)c1 (stereo in doubt) [AVN-944] | 5.69 |
| Oc1ncc(F)c(O)n1 [5-fluorouracil] | 13.9 |
| CN(C)CCNC(=O)c1cccn2c(=O)c3cc4ccccc4cc3nc12 [Bmh-21] | 0.265 |

system: myeloid leukemia patient primary cells Pat.10; assay: as above; details: 1 nM; 72 h
Outline: as §1

| SMILES | cell viability [%] |
| --- | --- |
| O=C(c1c2ccccc2cc2ccccc12)N1CCC(N2CCC[C@@H](C(=O)N3CCOCC3)C2)CC1 | 88.3 |
| c1ccc2c(c1)SCc1c-2[nH]c2ccccc12 | 73.8 |
| CCC(CC#N)OC(=O)N[C@@H](C)c1cccc(NC(=O)Nc2ccc(-c3cnco3)c(OC)c2)c1 (stereo in doubt) [AVN-944] | > 100 |
| Oc1ncc(F)c(O)n1 [5-fluorouracil] | > 100 |
| CN(C)CCNC(=O)c1cccn2c(=O)c3cc4ccccc4cc3nc12 [Bmh-21] | 74.6 |

same assay, conditions: 10 nM; 72 h

| SMILES | cell viability [%] |
| --- | --- |
| O=C(c1c2ccccc2cc2ccccc12)N1CCC(N2CCC[C@@H](C(=O)N3CCOCC3)C2)CC1 | 67.9 |
| c1ccc2c(c1)SCc1c-2[nH]c2ccccc12 | 59.9 |
| CCC(CC#N)OC(=O)N[C@@H](C)c1cccc(NC(=O)Nc2ccc(-c3cnco3)c(OC)c2)c1 (stereo in doubt) [AVN-944] | 66.9 |
| Oc1ncc(F)c(O)n1 [5-fluorouracil] | 78.1 |
| CN(C)CCNC(=O)c1cccn2c(=O)c3cc4ccccc4cc3nc12 [Bmh-21] | 87.5 |

same assay, conditions: 100 nM; 72 h

| SMILES | cell viability [%] |
| --- | --- |
| O=C(c1c2ccccc2cc2ccccc12)N1CCC(N2CCC[C@@H](C(=O)N3CCOCC3)C2)CC1 | 78.7 |
| c1ccc2c(c1)SCc1c-2[nH]c2ccccc12 | 41.9 |
| CCC(CC#N)OC(=O)N[C@@H](C)c1cccc(NC(=O)Nc2ccc(-c3cnco3)c(OC)c2)c1 (stereo in doubt) [AVN-944] | 41.6 |
| Oc1ncc(F)c(O)n1 [5-fluorouracil] | 65 |
| CN(C)CCNC(=O)c1cccn2c(=O)c3cc4ccccc4cc3nc12 [Bmh-21] | 72.1 |

same assay, conditions: 1000 nM; 72 h

| SMILES | cell viability [%] |
| --- | --- |
| O=C(c1c2ccccc2cc2ccccc12)N1CCC(N2CCC[C@@H](C(=O)N3CCOCC3)C2)CC1 | 29.7 |
| c1ccc2c(c1)SCc1c-2[nH]c2ccccc12 | 3.78 |
| CCC(CC#N)OC(=O)N[C@@H](C)c1cccc(NC(=O)Nc2ccc(-c3cnco3)c(OC)c2)c1 (stereo in doubt) [AVN-944] | 58.3 |
| Oc1ncc(F)c(O)n1 [5-fluorouracil] | 68.9 |
| CN(C)CCNC(=O)c1cccn2c(=O)c3cc4ccccc4cc3nc12 [Bmh-21] | 38.9 |

same assay, conditions: 10000 nM; 72 h

| SMILES | cell viability [%] |
| --- | --- |
| O=C(c1c2ccccc2cc2ccccc12)N1CCC(N2CCC[C@@H](C(=O)N3CCOCC3)C2)CC1 | 80.8 |
